Assay results reported in patent publication EP4140481A1, “PROTEIN-OLIGOMER BINDING AGENTS AND THERAPEUTIC USES THEREOF” (Galyan Bio, Inc., priority 2021, dated 2023).

Tests used:
phospho-Tau (Ser396) = molecular target: T1, phospho-Tau (Ser396) (Mus musculus, UniProt P10637); test: Phospho-Tau (Ser396) immunocytochemistry in STHdh 7/7 cells; assay type: cell-based; details: for Phospho-Tau (Ser396) reduction: heat shocked 3 hours, versus untreated STHdh 7/7
T1 construct: host or cells: ST HDH Q7/7 mouse striatal cell line
T1 sequence (P10637 whole entry): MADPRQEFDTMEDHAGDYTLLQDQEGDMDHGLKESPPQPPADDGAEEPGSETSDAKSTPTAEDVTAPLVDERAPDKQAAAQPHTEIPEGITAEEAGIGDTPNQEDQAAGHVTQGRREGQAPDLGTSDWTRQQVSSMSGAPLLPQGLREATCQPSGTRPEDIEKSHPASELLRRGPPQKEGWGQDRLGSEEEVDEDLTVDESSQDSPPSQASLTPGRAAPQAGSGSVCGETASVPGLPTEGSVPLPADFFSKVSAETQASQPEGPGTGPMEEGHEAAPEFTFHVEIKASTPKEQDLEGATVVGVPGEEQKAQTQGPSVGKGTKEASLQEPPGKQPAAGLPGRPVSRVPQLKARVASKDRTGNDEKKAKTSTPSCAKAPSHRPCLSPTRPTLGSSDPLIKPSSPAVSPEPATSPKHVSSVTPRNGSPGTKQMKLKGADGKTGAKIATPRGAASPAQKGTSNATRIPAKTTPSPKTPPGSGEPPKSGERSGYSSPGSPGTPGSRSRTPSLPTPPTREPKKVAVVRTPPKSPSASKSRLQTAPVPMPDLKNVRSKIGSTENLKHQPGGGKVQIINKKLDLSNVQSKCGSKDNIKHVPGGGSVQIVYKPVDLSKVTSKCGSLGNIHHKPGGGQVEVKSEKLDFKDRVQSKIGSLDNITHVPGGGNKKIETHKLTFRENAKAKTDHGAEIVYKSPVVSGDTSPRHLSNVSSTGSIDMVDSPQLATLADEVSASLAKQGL
Protocol: (§1) Effect of Compound 4 on Phospho-Tau (Ser396) levels - ST HDH Q7/7 (CH00097, Coriell Institute) striatal derived cell line from a knock in transgenic mouse containing HTT loci with a humanized Exon 1 containing 7 polyglutamine repeats. Immunocytochemistry was conducted as described in Example 33 with the exception that instead of 3B5H10 antibody for staining mHTT, phospho-Tau (Ser396) polyclonal antibody (ThermoFisher, Catalog 44-752G) was used to stain phospho-Tau (Ser396).

phospho-Tau (Ser404) = molecular target: T2, phospho-Tau (Ser404) (Mus musculus, UniProt P10637); test: Phospho-Tau (Ser404) immunocytochemistry in STHdh 7/7 cells; assay type: cell-based
T2 construct: host or cells: ST HDH Q7/7 mouse striatal cell line
T2 sequence (P10637 whole entry): as above
From the text: as §1, with “repeats. Diffuse mHTT quantified with immunocytochemistry” for “repeats. Immunocytochemistry was conducted”, “phospho-Tau (Ser404)” for “phospho-Tau (Ser396)”, “Catalog 44-758G)” for “Catalog 44-752G)”, “phospho-Tau (Ser396) and no heat shock was used.” for “phospho-Tau (Ser396).”

C. elegans [1] = details: in vivo
Protocol: Background: First, acute toxicity assays were performed to test the toxicity of the compounds in adult worms by simulating the actual conditions of the lifespan assay. This accomplished two things. First, in the early stages it determines doses that are acutely toxic to adult worms. Second, over time the worms are scored to rule out doses that despite low initial toxicity, will likely have a negative impact on lifespan. Worms are plated on the exact media and sealed plates that will be used in the lifespan assay and then incubated at 25°C to provide a pilot lifespan that helps catch any other dosing and delivery pitfalls early. Adult worms were monitored in the days immediately following exposure for lethality or any other obvious defects.
Results: Worms were treated with either vehicle control or Compound 4 at concentrations of 50nM, 500nM, 5µM, 50µM, and 500µM. […] The exception is that the worms are incubated at 25°C instead of 20°C to accelerate the aging process. […] Worms were then scored periodically for early deaths. Worms treated with 5 µM Compound 4 or higher concentrations began to decline faster than vehicle control-treated worms. As these doses would be unlikely to increase lifespan in an actual lifespan assay, this placed the upper boundary of effective concentrations between 500 nM and 5 µM (Figure 52 (B)). […]

C. elegans [2] = test: C. elegans lifespan assay (Automated Lifespan Machine); assay type: in vivo
Protocol: Experimental Design: The lifespan assay was initiated by expanding all replicate groups to more than 1000 worms, then synchronizing by bleaching and allowing larval worms to hatch and arrest. To eliminate the effect of bacterial metabolism and growth on lifespan, synchronized worms were only exposed to dead food bacteria. To suppress progeny, worms are transferred to media containing 5-Fluorodeoxyuridine (FUdR) within 54-60 hours post plating. Worms are inspected at 24 and48 hours after this transfer to confirm infertility. Finally, the worms are inspected for general health and morphology before transferring to scanner plates. The scanner plates are incubated for an additional 2 days and inspected again before loading on to scanners. To understand the physiological impact of either genetic variation or pharmacological treatment on aging, it is crucial to use quantitative models. The analysis of lifespan data is grounded in the study of two mathematical functions: the survival curve and the hazard function. The survival curve (Figure 54) describes the fraction of a tested population that remains alive over time. The hazard function (Figure 55) is related to the survival curve and provides an intuitive measure of the risk of death. This function describes the probability that atypical individual who is currently alive will soon die, providing a clear visualization of the way a treatment may change patterns in mortality. To obtain high-resolution lifespan data and eliminate confounding factors such as worm handling and operator bias, lifespan data was collected using an Automated Lifespan Machine (ALM). Three biological replicates, derived from synchronizing three independently-maintained lines of N2 worms, were distributed across scanner instruments. Images of the worms were then collected for the next 35 days with no interruption or manipulations. Some plates were excluded after quality checks, but plate number and worm counts for all replicates exceeded the threshold for statistical significance (Table 32, row 1).Lifespan data are represented as the percent of worms surviving over time and the profile of this curve can be modeled by the Kaplan-Meier Estimate of Survival function (Figure 54). The survival curves can be compared by several statistics including mean, median, and maximum lifespan (Table 32), as well as the age of worms at a specific percent survival (Table 34). However, to determine whether one treatment group lived longer than another, survival curves are holistically compared using a log-rank test (Table 33). In this study, all pairwise comparisons between conditions were statistically significant. Tables 32 to 34 detail the raw measurements, calculations, and statistical analysis related to the survival curve in Figure 54. Lifespan is counted with day 0 set at day 1 of adulthood. No death times are recorded until worms are placed on the scanner on day 8 so earlier deaths are excluded from calculations of mean and median. Median lifespan is equal to the time at which 50% of the subjects have died. Mean lifespan is calculated from the area under the survival curve. Maximum lifespan is equal to 95th percentile of lifespans in each group. C.I.: Confidence Interval. See Figure 55 and Table 33 for statistical analysis Table 33: Pairwise statistical analysis of survival curves.

[3] = molecular target: T3, Wild type (wt) α-Synuclein (Homo sapiens, UniProt P37840); test: Dynamic Light Scattering (DLS), induced aggregation; assay type: biochemical
T3 construct: purchased rPeptide, Watkinsville, Georgia S-1001-2

[4] = system: STHdh 111/111 striatal cells; test: Cell viability after heat shock (CellTiter Glo); details: heat shocked STHdh 111/111 versus STHdh 7/7 control cells
Protocol: Cell culture - ST HDH Q111/111 (CH00095, Coriell Institute) striatal derived cell line were grown at 33°C in DMEM (Sigma-Aldrich), supplemented with 10% fetal bovine serum (FBS), 1% Penicillin-Streptomycin (ThermoFisher Scientific), and 0.4 mg/ml G418 (Geneticin; Invitrogen). ST HDH Q111/111 are mouse striatal cells with polyQ length of 111.
Pre-Treatment of striatal cell line - First the medium was removed and new DMEM (DMEM, high glucose, HEPES, no phenol red) medium, supplemented with 10% fetal bovine serum (FBS), 1% Penicillin-Streptomycin, containing 10 µM compound was added. The cells were incubated at 33 °C for 24 hours.
Heat shock - Cells were heat shocked for 3 hours at 41 °C.
Treatment - Medium was removed and new DMEM (DMEM, high glucose, HEPES, no phenol red) medium, supplemented with 1% fetal bovine serum (FBS), 1% Penicillin-Streptomycin, containing 10 µM compound was added. The cells were incubated at 33 °C for 48 hours.
Cell Viability - Cell viability was measured according to manufacturer recommendations with CellTiter Glo (Promega).

Structure (SMILES): CCc1c(C)[nH]c2ccc(C(=O)NCCN(CC)CC)cc12 [Compound 4, N-(2-(diethylamino)ethyl)-3-ethyl-2-methyl-1H-indole-5-carboxamide]
- Phospho-Tau (Ser396) reduction with autophagy inhibitor (phospho-Tau (Ser396); 5 µM, 10 mM ammonium chloride): could not reduce
- Phospho-Tau (Ser396) reduction (phospho-Tau (Ser396); 5 µM): 20%
- inhibition at 10 µM (phospho-Tau (Ser396); 10 µM, 10 mM ammonium chloride, read-out: Phospho-Tau (Ser396) reduction with autophagy inhibitor): 15.2%
- Phospho-Tau (Ser396) reduction (phospho-Tau (Ser396); 10 µM): 26.3%
- Phospho-Tau (Ser404) reduction (phospho-Tau (Ser404); 10 µM, no heat shock, versus untreated STHdh 7/7): 40%
- Phospho-Tau (Ser404) reduction with autophagy inhibitor (phospho-Tau (Ser404); 10 mM ammonium chloride): could not reduce
- concentration at which worms began to decline faster than vehicle control-treated worms (C. elegans [1]): ≥ 5 µM
- Age at 25% mortality (C. elegans [2]; 200 nM): 21.42 days
- Age at 50% mortality (C. elegans [2]; 200 nM): 26.16 days
- Age at 75% mortality (C. elegans [2]; 200 nM): 29.57 days
- Age at 90% mortality (C. elegans [2]; 200 nM): 31.75 days
- Age at 100% mortality (C. elegans [2]; 200 nM): 39.46 days
- Median lifespan (C. elegans [2]; 200nM (vehicle control 24.3)): 26.2 days
- Mean lifespan (C. elegans [2]; 200nM (vehicle control 24.7)): 25.7
- Maximum lifespan (C. elegans [2]; 200nM (vehicle control 34.9), 95th percentile): 33.7 days
- Age at 25% mortality (C. elegans [2]; 2 µM): 23.9 days
- Age at 50% mortality (C. elegans [2]; 2 µM): 27.54 days
- Age at 75% mortality (C. elegans [2]; 2 µM): 29.41 days
- Age at 90% mortality (C. elegans [2]; 2 µM): 31.23 days
- Age at 100% mortality (C. elegans [2]; 2 µM): 39.42 days
- Median lifespan (C. elegans [2]; 2µM (vehicle control 24.3)): 27.6 days
- Blood Brain Barrier Penetrability AUCbrain/AUCplasma (Compound 4): AUCbrain/AUCplasma = 2.27
- penetration of the blood brain area in vivo (intravenous, 1 mg/kg body weight, brain tissue): penetrates the blood brain area
- oligomerization of wt α-Synuclein ([3]; Compound 4 solved in methanol): does not oligomerize
- % Volume, Peak 1 ([3]; by volume, 70 µM equimolar Compound 4 solved in methanol): 99,4%

Structure (SMILES): Cc1[nH]c2ccc(C(=O)NCCN(C(C)C)C(C)C)cc2c1C [Compound 22]
- cell viability at 24 hours after treatment [4]: almost equivalent to the cell viability of STHdh 7/7 control cells
